Measurements published in patent US6416975B1 (Gliatech, Inc., priority 1998, dated 2002).

What was measured:
[1] = biological target: T1, rat GlyT2 (Rattus norvegicus, UniProt P58295); details: Liu et al. 1993, cited from earlier work
T1 sequence (P58295 1-799): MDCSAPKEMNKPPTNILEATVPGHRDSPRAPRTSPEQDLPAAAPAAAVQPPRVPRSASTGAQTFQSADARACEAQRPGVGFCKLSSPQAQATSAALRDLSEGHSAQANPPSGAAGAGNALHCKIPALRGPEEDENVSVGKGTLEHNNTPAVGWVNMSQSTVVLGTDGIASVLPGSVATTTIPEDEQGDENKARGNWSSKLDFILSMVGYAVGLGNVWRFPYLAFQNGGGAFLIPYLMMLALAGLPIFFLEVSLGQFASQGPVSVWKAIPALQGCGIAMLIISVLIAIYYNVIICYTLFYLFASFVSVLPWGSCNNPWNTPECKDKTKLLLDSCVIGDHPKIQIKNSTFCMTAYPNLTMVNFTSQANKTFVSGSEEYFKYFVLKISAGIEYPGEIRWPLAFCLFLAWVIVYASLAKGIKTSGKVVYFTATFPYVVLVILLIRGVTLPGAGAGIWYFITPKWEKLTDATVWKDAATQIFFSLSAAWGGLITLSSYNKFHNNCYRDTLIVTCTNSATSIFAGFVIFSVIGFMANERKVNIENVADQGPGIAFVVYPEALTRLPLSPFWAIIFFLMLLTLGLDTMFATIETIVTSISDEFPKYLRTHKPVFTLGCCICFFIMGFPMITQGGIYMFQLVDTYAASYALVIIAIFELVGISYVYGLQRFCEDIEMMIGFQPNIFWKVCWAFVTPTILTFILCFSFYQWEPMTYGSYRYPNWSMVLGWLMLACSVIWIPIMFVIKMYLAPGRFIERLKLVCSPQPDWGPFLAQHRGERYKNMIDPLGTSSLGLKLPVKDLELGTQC

[2] = biological target: T2, hGlyT2 transporter (full-length) (Homo sapiens, UniProt Q9Y345, G24S/N188D/Q362L/R74W/S155G/T582S/V431A); details: full-length hGlyT2, COS-7 cells
T2 sequence (Q9Y345 1-797 G24S/R74W/S155G/N188D/Q362L/V431A/T582S): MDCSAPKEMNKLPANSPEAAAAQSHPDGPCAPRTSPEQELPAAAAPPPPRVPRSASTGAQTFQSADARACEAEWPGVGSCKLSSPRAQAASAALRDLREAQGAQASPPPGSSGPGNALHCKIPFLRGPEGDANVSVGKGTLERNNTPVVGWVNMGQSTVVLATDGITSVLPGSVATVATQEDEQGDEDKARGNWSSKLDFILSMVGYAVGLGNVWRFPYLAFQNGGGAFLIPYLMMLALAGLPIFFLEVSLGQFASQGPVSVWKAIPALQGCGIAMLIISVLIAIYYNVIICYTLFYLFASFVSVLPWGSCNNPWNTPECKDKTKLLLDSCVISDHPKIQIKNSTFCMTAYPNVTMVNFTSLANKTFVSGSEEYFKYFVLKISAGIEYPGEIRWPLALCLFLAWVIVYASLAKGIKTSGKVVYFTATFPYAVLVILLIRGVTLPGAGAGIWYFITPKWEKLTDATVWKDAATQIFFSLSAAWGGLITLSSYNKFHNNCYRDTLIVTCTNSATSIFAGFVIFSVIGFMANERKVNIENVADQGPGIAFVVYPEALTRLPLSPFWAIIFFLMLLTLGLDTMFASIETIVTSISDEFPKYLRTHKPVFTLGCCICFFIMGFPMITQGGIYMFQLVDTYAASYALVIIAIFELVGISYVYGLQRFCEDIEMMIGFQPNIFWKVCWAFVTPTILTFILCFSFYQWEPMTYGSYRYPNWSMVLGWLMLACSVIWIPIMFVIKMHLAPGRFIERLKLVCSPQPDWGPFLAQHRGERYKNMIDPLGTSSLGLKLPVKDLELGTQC

[3] = biological target: T3, truncated hGlyT2 (start at Met-154, lacking the first 153 amino acids) (Homo sapiens, UniProt Q9Y345, N188D/Q362L/S155G/T582S/V431A); details: truncated hGlyT2, COS-7 cells
T3 sequence (Q9Y345 154-797 S155G/N188D/Q362L/V431A/T582S): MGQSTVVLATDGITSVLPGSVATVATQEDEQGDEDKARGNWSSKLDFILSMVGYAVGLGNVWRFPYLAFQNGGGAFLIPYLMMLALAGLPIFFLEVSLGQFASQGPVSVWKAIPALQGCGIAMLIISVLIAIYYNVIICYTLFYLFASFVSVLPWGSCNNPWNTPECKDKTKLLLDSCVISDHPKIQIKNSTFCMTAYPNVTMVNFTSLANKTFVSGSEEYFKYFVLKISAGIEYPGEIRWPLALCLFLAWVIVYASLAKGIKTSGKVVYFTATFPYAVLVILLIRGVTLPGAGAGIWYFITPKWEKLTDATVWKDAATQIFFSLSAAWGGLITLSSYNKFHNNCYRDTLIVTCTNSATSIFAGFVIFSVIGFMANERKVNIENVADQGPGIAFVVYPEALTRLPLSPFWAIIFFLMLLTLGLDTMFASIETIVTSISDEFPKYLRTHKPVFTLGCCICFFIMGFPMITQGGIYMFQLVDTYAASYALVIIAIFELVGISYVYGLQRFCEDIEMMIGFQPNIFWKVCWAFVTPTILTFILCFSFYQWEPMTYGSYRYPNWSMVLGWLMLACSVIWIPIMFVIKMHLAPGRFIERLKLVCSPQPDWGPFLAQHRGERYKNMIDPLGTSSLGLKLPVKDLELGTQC

[4] = biological target: T4, GlyT1 (Homo sapiens, UniProt P48067); details: sarcosine concentration exceeds 200 μM; cited from earlier work
T4 sequence (P48067 1-706): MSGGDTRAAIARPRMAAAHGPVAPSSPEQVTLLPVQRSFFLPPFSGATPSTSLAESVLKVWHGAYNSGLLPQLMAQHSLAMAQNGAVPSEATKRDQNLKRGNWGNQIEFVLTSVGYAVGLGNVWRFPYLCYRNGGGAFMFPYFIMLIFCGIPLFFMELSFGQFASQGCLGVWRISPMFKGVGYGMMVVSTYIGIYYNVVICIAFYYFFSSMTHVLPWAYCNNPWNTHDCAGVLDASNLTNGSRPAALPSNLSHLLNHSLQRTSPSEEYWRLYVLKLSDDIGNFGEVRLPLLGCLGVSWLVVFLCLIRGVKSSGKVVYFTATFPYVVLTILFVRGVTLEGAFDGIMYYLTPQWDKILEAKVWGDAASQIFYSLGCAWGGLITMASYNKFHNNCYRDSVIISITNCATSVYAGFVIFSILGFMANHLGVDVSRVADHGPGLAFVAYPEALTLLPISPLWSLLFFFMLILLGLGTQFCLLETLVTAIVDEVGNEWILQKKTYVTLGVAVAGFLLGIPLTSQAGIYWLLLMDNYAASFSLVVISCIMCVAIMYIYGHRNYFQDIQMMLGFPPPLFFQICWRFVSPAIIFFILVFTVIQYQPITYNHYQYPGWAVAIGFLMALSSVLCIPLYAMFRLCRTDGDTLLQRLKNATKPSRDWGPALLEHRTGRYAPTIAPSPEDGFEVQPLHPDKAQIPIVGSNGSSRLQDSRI

[5] = substrate: NCC(=O)O; assay: cells, lysate or membranes; details: pH 7.4
[6] = 1 mM sarcosine, 15 min pretreatment

For NCC(=O)O [glycine], the Km ([1]; read-out: Km reported for rat GlyT2) is given as 13 µM, the “Vmax of glycine uptake (Eadie-Hofstee)” value [2] is given as 190±3 pmol glycine/mg protein/min and the “Vmax of glycine uptake” value [3] is given as 67±3 pmol glycine/mg protein/min.

In the case of CNCC(=O)O [sarcosine], the “inhibition of rat GlyT2-mediated glycine uptake” value ([1]; sarcosine 1 mM) is given as 10-20%, the “reduction of glycine uptake” value [2, 6] is given as “less than 15%” and the “effect of increasing concentrations of sarcosine on glycine uptake (FIG. 5)” value [2] is given as “insensitive to sarcosine inhibition”. For the same molecule, the “inhibition of GlyT1-mediated glycine uptake” value [4] was “almost completely inhibited”, the “reduction of glycine uptake” value [3, 6] was “less than 15%” and the “effect of increasing concentrations of sarcosine on glycine uptake (FIG. 5)” value [3] was “insensitive to sarcosine inhibition”.

B1: truncated hGlyT2 (start at Met-154, lacking the first 153 amino acids) (Homo sapiens; N188D/Q362L/S155G/T582S/V431A) (protein)
chain: MGQSTVVLATDGITSVLPGSVATVATQEDEQGDEDKARGNWSSKLDFILSMVGYAVGLGNVWRFPYLAFQNGGGAFLIPYLMMLALAGLPIFFLEVSLGQFASQGPVSVWKAIPALQGCGIAMLIISVLIAIYYNVIICYTLFYLFASFVSVLPWGSCNNPWNTPECKDKTKLLLDSCVISDHPKIQIKNSTFCMTAYPNVTMVNFTSLANKTFVSGSEEYFKYFVLKISAGIEYPGEIRWPLALCLFLAWVIVYASLAKGIKTSGKVVYFTATFPYAVLVILLIRGVTLPGAGAGIWYFITPKWEKLTDATVWKDAATQIFFSLSAAWGGLITLSSYNKFHNNCYRDTLIVTCTNSATSIFAGFVIFSVIGFMANERKVNIENVADQGPGIAFVVYPEALTRLPLSPFWAIIFFLMLLTLGLDTMFASIETIVTSISDEFPKYLRTHKPVFTLGCCICFFIMGFPMITQGGIYMFQLVDTYAASYALVIIAIFELVGISYVYGLQRFCEDIEMMIGFQPNIFWKVCWAFVTPTILTFILCFSFYQWEPMTYGSYRYPNWSMVLGWLMLACSVIWIPIMFVIKMHLAPGRFIERLKLVCSPQPDWGPFLAQHRGERYKNMIDPLGTSSLGLKLPVKDLELGTQC
B1 showed a Km ([5]; other: truncated hGlyT2, COS-7 cells, 37.0 °C) of 9 ± 1 µM.

B2: hGlyT2 transporter (full-length) (Homo sapiens; G24S/N188D/Q362L/R74W/S155G/T582S/V431A) (protein)
chain: MDCSAPKEMNKLPANSPEAAAAQSHPDGPCAPRTSPEQELPAAAAPPPPRVPRSASTGAQTFQSADARACEAEWPGVGSCKLSSPRAQAASAALRDLREAQGAQASPPPGSSGPGNALHCKIPFLRGPEGDANVSVGKGTLERNNTPVVGWVNMGQSTVVLATDGITSVLPGSVATVATQEDEQGDEDKARGNWSSKLDFILSMVGYAVGLGNVWRFPYLAFQNGGGAFLIPYLMMLALAGLPIFFLEVSLGQFASQGPVSVWKAIPALQGCGIAMLIISVLIAIYYNVIICYTLFYLFASFVSVLPWGSCNNPWNTPECKDKTKLLLDSCVISDHPKIQIKNSTFCMTAYPNVTMVNFTSLANKTFVSGSEEYFKYFVLKISAGIEYPGEIRWPLALCLFLAWVIVYASLAKGIKTSGKVVYFTATFPYAVLVILLIRGVTLPGAGAGIWYFITPKWEKLTDATVWKDAATQIFFSLSAAWGGLITLSSYNKFHNNCYRDTLIVTCTNSATSIFAGFVIFSVIGFMANERKVNIENVADQGPGIAFVVYPEALTRLPLSPFWAIIFFLMLLTLGLDTMFASIETIVTSISDEFPKYLRTHKPVFTLGCCICFFIMGFPMITQGGIYMFQLVDTYAASYALVIIAIFELVGISYVYGLQRFCEDIEMMIGFQPNIFWKVCWAFVTPTILTFILCFSFYQWEPMTYGSYRYPNWSMVLGWLMLACSVIWIPIMFVIKMHLAPGRFIERLKLVCSPQPDWGPFLAQHRGERYKNMIDPLGTSSLGLKLPVKDLELGTQC
For B2, the Km ([5]; other: full-length hGlyT2, COS-7 cells, 15 min at 37° C.) was 10 ± 0.4 µM.
